Data on two compounds can be found in patent US20250025438A1, “Derivative of aspartic acid and use thereof in treatment of metabolic diseases such as hepatic fibrosis and non-alcoholic hepatitis” (SHENZHEN JINGTAI TECHNOLOGY CO., LTD., priority 2021, published 2025).

For one series, the system named is NAFLD induced by HFD. Description: Mouse NAFLD model induced by HFD, H&E staining. In kind it is in vivo, C57BL/6J male mice. As to conditions: HFD diet mice, 10, 50, 150 mg/kg by gavage bid, 8 weeks, vs untreated group, FIG. 9. The method, then:
• (1) C57BL/6J male mice aged 6 to 8 weeks were selected and randomly divided into normal diet group (n=10) and HFD or CHOL group; the weight changes of the mice were recorded during the modeling period, and the modeling was conducted for 8 weeks (CHOL) or 10 weeks (HFD), then the mice in the HFD or CHOL group were randomly divided into groups according to their body weights, plus the negative control group, a total of 5 groups:
(2) Mice in the negative control group (n=10): The animals were fed with normal diet, and 200 μL of drinking water was administered by gavage, bid.
Mice in HFD or CHOL group (n=10): The animals were fed with HFD or CHOL diet, and 200 μL of normal saline was administered by gavage at the same time, bid. (Note: HFD (60% high fat) feed (Whitby Technology Development (Beijing) Co., Ltd.) (D12492), CHOL (40% high fat +1.25% cholesterol) feed (Whitby Technology Development (Beijing) Co., Ltd.) (D12108C)) (3) Mice in Compound 6-low dose group (n=10): The animals were fed with HFD or CHOL diet, and administrated simultaneously with Compound 6 at a dose of 10 mg/kg by gavage, bid.
(4) Mice in Compound 6-middle dose group (n=10): The animals were fed with HFD or CHOL diet, and administrated simultaneously with Compound 6 at a dose of 50 mg/kg by gavage, bid. […]

Series [1] in a line: Pharmacokinetic testing in rats. In kind it is in vivo, SD rats. As for the experimental part:
Rats were used as test animals to study the pharmacokinetic behavior of the following compounds in rat plasma.
The drugs were self-made according to the examples of the present invention.
SD rats, 6-8 weeks old, 3 for each administration method/example, male.
The animals were fasted overnight, ate food 8 hours after taking the drug, and drank water freely.
Blood was collected before administration and at 5 min, 15 min, 30 min, 1 hr, 2 hr, 4 hr, 8 hr and 24 hr after administration.
The blood was placed on wet ice and centrifuged to obtain plasma sample (2000 g, 5 min at 4° C.).
The LC-MS/MS method was used to determine the blood drug concentration. The HPLC conditions were: mobile phase A: H2O-0.5% FA; mobile phase B: ACN-0.5% FA;
WinNonlin 8.2 non-compartmental model was used to estimate pharmacokinetic parameters (PK parameters, including but not limited to peak concentration (Cmax), time to peak (Tmax), terminal elimination rate (Ke), terminal elimination half-life (T1/2), area under drug-time curve (AUC), clearance rate (CL), apparent volume of distribution (Vd), mean residence time (MRT), bioavailability (F), etc.).

For another series, the system named is collagen I. Description: Activated LX2 cells (TGFβ1), Western blot: Collagen I. In kind it is cell-based. The settings on record: LX2 cells stimulated with TGFβ1 (5 ng/mL), 24 hours, FIG. 4. For orientation: A western blot detects proteins with antibodies after separation by electrophoresis.
[2] abbreviates: male, SD, rat, plasma, PO 20 mg/kg.

SMILES strings stand for the structures. Structures can show the parent of a compound that is named as a salt. Where two headings read alike, the source gives them in different places.

As for `COC(=O)C[C@H](N)C(=O)O` [Compound 6], the “lipid droplet aggregation in the liver tissue of mice (H&E)” value in the series with NAFLD induced by HFD is “reduced in a dose-dependent manner”. Moreover, in series [1] (PO 20 mg/kg), the “AUC compared with rats administrated with aspartic acid” value is reported as “significantly higher”, the “Cmax compared with rats administrated with aspartic acid” value is listed as “significantly higher” and the “Tmax compared with rats administered with aspartic acid” value is reported as “significantly smaller”. Also, the Cmax (as a rule, the maximum level reached in the sampled fluid or tissue) in series [1] (male, SD, rat, plasma, Compound 6 IV 10 mg/kg, read-out: Cmax of Compound 6) was determined as 6100 ng/mL. Moreover, in series [1] (male, SD, rat, plasma, Compound 6 PO 40 mg/kg, read-out: Cmax of Compound 6), the Cmax worked out at 22500 ng/mL. Besides, in series [1] (setting [2]), the AUC(0-t) (in general, the area under the concentration-time curve up to a stated or last time point) turned out to be 71300 ng·h/mL and the Tmax (usually the time from dosing to the highest level) was determined as 30 min. In series [1] (male, SD, rat, plasma, PO 20 mg/kg, read-out: Cmax), the Cmax worked out at 14800 ng/mL.

As to `COC(=O)C[C@H](N)C(=O)OCOC(=O)[C@@H](N)CC(=O)OC` [Compound 54, 4-dimethyl O′1,01-methylene (2S,2'S)-bis (2-aminosuccinate) hydrochloride], in the series with collagen I, the “expression of Collagen I in the cells” value is recorded as “significantly decreased”.
